Where a name gives a salt, the structure may show the parent alone.
How the values were obtained:
MCF10A cells = test: MTS cell growth inhibition, normal breast epithelial cells; format: cell-based, human; conditions: 72 h
Procedure: MTS Cell Growth Inhibition Experiments. Colorectal cancer cells (SW480 and HCT116) and triple negative breast cancer cells (MDA-MB-231 and MDA-MB-468) were seeded in 96-well plates at 5×10^3 cells/well in DMEM with 10% fetal bovine serum (FBS), maintained overnight at 37° C., and then incubated with the tested compounds at various concentrations in DMEM with 5% FBS. Human mammary epithelial MCF10A cells were seeded in 96-well plates at 1×10^4 cells/well in MEGM (CC-3150, Lonza) with 100 ng/mL cholera toxin, maintained overnight at 37° C., and incubated with the tested compounds at various concentrations. Cell viability was monitored after 72 h using a freshly prepared mixture of 1 part phenazine methosulfate (PMS, Sigma) solution (0.92 mg/mL) and 19 parts 3-(4,5-dimethylthiazol-2-yl)-5-(3-carboxymethoxyphenyl)-2-(4-sulfophenyl)-2H-tetrazolium (MTS, Promega) solution (2 mg/mL). Cells were incubated in 10 μL of this solution at 37° C. for 3 h, and the UV absorption at 490 nm (A490) was measured. The effect of each compound is expressed as the concentration required to reduce A490 by 50% (IC50) relative to DMSO-treated cells. Experiments were performed in triplicate.

[1] = test system: Wnt target genes Axin2, BCL9L, MMP7 in SW480 cells; test: Quantitative real-time PCR of Wnt target genes; format: cell-based, human; conditions: 24-h incubation
Procedure: Quantitative Real Time PCR analysis. SW480 cells at 1×10^6 cells/mL were treated with inhibitors at different concentrations for 24 h. Total RNAs were extracted with TRIzol (15596026, Life Technologies), and the cDNA was synthesized with the superscript III first-strand kit (18080-051, Invitrogen). qPCR experiments were performed using the iQ™ SYBR green supermix kit (170-8880, BIO-RAD) on an CFX96 Real Time System (BIO-RAD). The threshold cycle (CT) values were normalized to that of internal reference GAPDH. Experiments were performed in triplicate. The primer pairs are shown below

[2] = test system: FOPFlash reporter in SW480 cells; test: FOPFlash luciferase reporter assay; format: cell-based; conditions: testing concentrations
Procedure: (§1) Cell Transfection and Luciferase Assay. FuGENE6 (E269 Å, Promega) 96 well plate format was used for the transfection of SW480 cells according to the manufacturer's instruction. SW480 cells were co-transfected with 60 ng of the TOPFlash or FOPFlash firefly luciferase reporter gene and 40 ng of the Renilla luciferase pCMV-RL normalization reporter gene. Cells were cultured in DMEM and 10% FBS at 37° C. for 24 h, and then different concentrations of inhibitors or DMSO was added and incubated in DMEM with 5% FBS. After 24 h, the luciferase reporter activity was measured using the Dual-Glo system (E2940, Promega). Normalized luciferase activity in response to the treatment with inhibitors was compared with that obtained from the cells treated with DMSO. Experiments were performed in triplicate.

β-catenin/E-cadherin PPI = test: Cell-based co-IP, β-catenin/E-cadherin; conditions: HCT116 cells, 24 h; concentrations sufficient to disrupt β-catenin/BCL9 PPI
Procedure: (§2) Co-IP Experiments. HCT116 cancer cells with hyperactive β-catenin signaling at 1×10^6 cells/mL were treated with different concentrations of the inhibitor for 24 h. Cells were then lysed in buffer containing 50 mM Tris, pH 7.4, 150 mM NaCl, 1% Nonidet P-40, 2 mM EDTA and protease inhibitors. The cell lysates were pre-adsorbed to A/G plus agarose (sc-2003, Santa Cruz Biotechnology) at 4° C. for 1 h. Pre-adsorbed lysates were incubated with a specific primary antibody against β-catenin (610153, BD Biosciences) overnight at 4° C. A/G plus agarose was then added to the lysate mixture and incubated for 3 h. The beads were washed four times with buffer B (20 mM Tris pH 7.4, 150 mM NaCl, 0.1% NP-40) at 4° C. The bound protein was eluted by boiling in the SDS sample buffer and loaded onto 8% SDS polyacrylamide gel for electrophoretic analysis. Separated proteins were transferred onto nitrocellulose membranes for immunoblot analysis. The antibodies against BCL9 (ab37305, Abcam) and E-cadherin (610404, BD Biosciences) were incubated with the membranes, respectively. IRDye 680LT goat anti mouse IgG (827-11080, LiCOR) and IRDye 800CW goat anti rabbit IgG (926-32211, LiCOR) were used as the secondary antibodies. The images were detected by the Odyssey Infrared Imaging System (LiCOR). Experiments were performed in triplicate.

[3] = test system: Wnt/β-catenin transactivation (TOPFlash) in SW480 cells; test: Wnt-responsive TOPFlash luciferase reporter assay; format: cell-based; conditions: 24 h
Procedure: as §1

β-catenin/BCL9 PPI [4] = test: Cell-based co-IP, β-catenin/BCL9; conditions: HCT116 cells, 24 h
Procedure: as §2

β-catenin/BCL9 PPI [5] = biological target: β-catenin/BCL9 PPI (Homo sapiens (Human), UniProt P35222); test: AlphaScreen competitive inhibition assay of β-catenin/BCL9 PPI; format: binding; conditions: mean ± standard deviation (n = 3); for Ki: derived from IC50, read-out: Ki ± SD
β-catenin/BCL9 PPI (Homo sapiens (Human), UniProt P35222), sequence (P35222 whole entry): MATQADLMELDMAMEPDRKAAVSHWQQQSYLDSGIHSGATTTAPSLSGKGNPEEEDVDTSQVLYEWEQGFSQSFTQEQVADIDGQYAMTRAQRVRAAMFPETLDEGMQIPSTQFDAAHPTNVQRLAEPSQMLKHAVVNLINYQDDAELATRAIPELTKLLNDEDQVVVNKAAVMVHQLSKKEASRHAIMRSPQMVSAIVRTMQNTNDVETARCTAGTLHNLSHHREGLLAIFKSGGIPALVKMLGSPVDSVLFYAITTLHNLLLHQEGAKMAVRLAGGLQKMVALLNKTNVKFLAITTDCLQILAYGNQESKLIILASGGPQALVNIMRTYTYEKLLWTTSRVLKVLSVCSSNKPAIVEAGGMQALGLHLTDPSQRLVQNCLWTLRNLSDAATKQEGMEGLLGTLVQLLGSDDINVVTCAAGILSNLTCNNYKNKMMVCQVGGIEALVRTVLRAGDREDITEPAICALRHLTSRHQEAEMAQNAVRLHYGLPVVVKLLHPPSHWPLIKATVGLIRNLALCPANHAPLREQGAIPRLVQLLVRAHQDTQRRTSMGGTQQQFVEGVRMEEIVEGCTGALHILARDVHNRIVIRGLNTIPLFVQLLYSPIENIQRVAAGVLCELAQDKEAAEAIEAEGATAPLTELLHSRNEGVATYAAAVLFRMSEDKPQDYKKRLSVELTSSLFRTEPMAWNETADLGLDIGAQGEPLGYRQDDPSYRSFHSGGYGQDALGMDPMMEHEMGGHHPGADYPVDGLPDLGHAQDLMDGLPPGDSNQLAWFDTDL
Procedure: AlphaScreen Assays of β-Catenin and BCL9 Interaction. Experiments were performed in white opaque 384-well plates from PerkinElmer (Waltham, MA), and the samples were read on a Biotek Synergy 2 plate reader (Winooski, VT) with excitation at 680 nm and emission at 570 nm. The standard AlphaScreen protocol was used with a sensitivity setting of 200. All dilutions were made in 1× assay buffer containing 25 mM Hepes (pH 7.4), 100 mM NaCl, 0.01% Triton X-100 and 0.1% BSA to minimize nonspecific interactions. For the competitive inhibition assays of β-catenin/BCL9 PPI, the negative control (equivalent to 0% inhibition) refers to 5.0 nM biotinylated BCL9, 50 nM His6-tagged β-catenin, and 10 μg/mL donor and acceptor beads in a final volume of 25 μL assay buffer, but no tested inhibitor present. The positive control (equivalent to 100% inhibition) refers to 5.0 nM biotinylated BCL9 and 10 μg/mL donor and acceptor beads in a final volume of 25 μL assay buffer.
For the β-catenin/BCL9 assay, 5 nM biotinylated BCL9 and 50 nM His6-tagged β-catenin were incubated in assay buffer for 30 min. Different concentrations of the tested inhibitor were added and incubated in 20 μL assay buffer for another 1 h. All of the assay plates were covered and gently mixed on an orbital shaker. The donor and acceptor beads were then added to the plates to a final concentration of 10 μg/mL in 25 μL assay buffer. The mixture was incubated for 1 h before detection. The IC50 value was determined by nonlinear least-square analysis of GraphPad Prism 8.0. The Ki values were derived from the IC50 values using a method reported by Wang and coworkers.^65 The equation used is Ki=[I]50/([L]50/Kd+[P]0/Kd+1) (Where [I]50 denotes the concentration of the free inhibitor at 50% inhibition, [L]50 is the concentration of the free labeled ligand at 50% inhibition, [P]0 is the concentration of the free protein at 0% inhibition, and Kd is the dissociation constant of the protein-ligand complex). All of the experiments were performed in triplicate and carried out in the presence of 1% DMSO for small-molecule inhibitors. Each compound was assayed at least by three independent experiments. The results were expressed as mean±standard deviation.

Axin2 = test: Western blot of Wnt target gene protein expression; format: cell-based; conditions: SW480 cells, 24-h incubation
Procedure: Western Blotting of Wnt Target Genes. SW480 cells at 1×10^6 cells/mL were treated with different concentrations of inhibitors for 24 h. Cells were lysed in buffer containing 50 mM Tris (pH 7.4), 150 mM NaCl, 1% Nonidet P-40, 0.1% SDS, 0.5% sodium deoxycholate, and protease inhibitors. After centrifugation at 12,000 rpm for 20 min at 4° C., the supernatant was boiling in the SDS sample buffer and loaded onto an 8% SDS polyacrylamide gel for electrophoretic analysis. Separated proteins were transferred onto nitrocellulose membranes for immunoblot analysis. The antibodies against Axin2 (MA5-15015, Thermo Fisher) and f-tubulin (sc-55529, Santa Cruz Biotechnology) were incubated with the membranes overnight at 4° C., respectively. IRDye 680LT goat anti-mouse IgG (827-11080, LiCOR) or IRDye 800CW goat anti-rabbit IgG (827-08365, LiCOR) was used as the secondary antibody. The images were detected by the Odyssey Infrared Imaging System (LiCOR). Experiments were performed in duplicate.

full-length β-catenin = full-length β-catenin (Homo sapiens (Human), UniProt P35222); test: Streptavidin protein pull-down from SW480 cell lysates; format: binding; conditions: 1 μM
full-length β-catenin, sequence (P35222 whole entry): as above
Procedure: Pull-Down Experiments. Colorectal cancer SW480 cells (70-80% confluency) in T75 flask were lysed first in 1 mL buffer A containing 50 mM Tris (pH 7.4), 150 mM NaCl, 1% Nonidet P-40, 2 mM EDTA, and protease inhibitors. Cell debris was removed by centrifugation at 10,000 g for 20 min at 4° C. To 500 μL SW480 cell lysates was added 1 or 10 μM Biotin-36 and the mixture was incubated at 4° C. for 3 h. Then, 25 μL Streptavidin Sepharose beads (5-1638, Sigma) were added to the lysate mixture and rotated at 4° C. for 2 h. The lysate mixture was centrifuged at 4000 rpm for 2 min at 4° C. The beads were washed with buffer B (20 mM Tris pH 7.4, 150 mM NaCl, 0.1% NP-40) for 4 times. The beads were resuspended in 60 μL of 2×SDS sample buffer. After boiling, the samples were loaded onto 8% SDS polyacrylamide gel for electrophoretic analysis. Separated proteins were transferred onto nitrocellulose membranes for immunoblot analysis. The antibody against β-catenin (610153, BD Biosciences) were incubated with the membranes. IRDye 680LT goat anti-mouse IgG (827-11080, LiCOR) was used as the secondary antibody. The images were detected by the Odyssey Infrared Imaging System (LiCOR). Experiments were performed in duplicate.

With `CC(C)(C)[C@H]1CC[C@@H](c2cc(C(=O)N3CCC(Oc4cc(N5CCNCC5)ccc4C#N)CC3)ccc2O[C@H]2CCNC2)CC1` [Compound 44] the “selectivity over normal breast epithelial MCF10A cells” value (MCF10A cells) was greater than 4 fold, the “effect on house-keeper gene HPRT (qPCR)” value [1] was “no effect” and the “transcription of Wnt target genes Axin2, BCL9L, MMP7 (qPCR)” value [1] was “downregulated transcriptions”. For the same compound, the FOPFlash luciferase activity [2] was “not affected”, the “effect on β-catenin/E-cadherin PPI (co-IP)” value (β-catenin/E-cadherin PPI) was “did not affect the β-catenin/E-cadherin PPI” and the IC50 [3] was 2.6 µM. The “disruption of β-catenin/BCL9 interaction (co-IP)” value (β-catenin/BCL9 PPI [4]) was “effectively disrupted β-catenin/BCL9 interaction”, the Ki (β-catenin/BCL9 PPI [5]) was no more than 2 µM and the IC50 (β-catenin/BCL9 PPI [5]) was no more than 2 µM. For the same compound, the “protein expression level of Axin2” value (Axin2) was “significant decreased”.

In the case of `CC(C)(C)C1CCC(c2cc(C(=O)N3CCC(Oc4cc(N5CCNCC5)ccc4C#N)CC3)ccc2O[C@@H]2CNC[C@H]2OCCOCCOCCNC(=O)CCCC[C@@H]2SCC3NC(=O)NC32)CC1.O=C(O)C(F)(F)F.O=C(O)C(F)(F)F` (relative stereo) [Biotin-37, trans-N-(2-(2-(2-((4-(2-(cis- and trans-4-(tert-butyl)cyclohexyl)-4-(4-(2-cyano-5-(piperazin-1-yl)phenoxy)piperidine-1-carbonyl)phenoxy)pyrrolidin-3-yl)oxy)ethoxy)ethoxy)ethyl)-5-((4S)-2-oxohexahydro-1H-thieno[3,4-d]imidazol-4-yl)pentanamide ditrifluoroacetic acid], the “binding with β-catenin (pull-down, Western blot)” value (full-length β-catenin) is reported as “effectively bound with full-length β-catenin”.

`O=C(c1ccc(O[C@H]2CCNC2)c(C2CCCCC2)c1)N1CCC(Oc2cc(F)cc(N3CC4(CCNCC4)C3)c2)CC1` [Compound 2, (S)-(3-cyclohexyl-4-(pyrrolidin-3-yloxy)phenyl)(4-(3-fluoro-5-(2,7-diazaspiro[3.5]nonan-2-yl)phenoxy)piperidin-1-yl)methanone ditrifluoroacetic acid] showed a Ki (β-catenin/BCL9 PPI [5]) greater than 84 µM and an IC50 (β-catenin/BCL9 PPI [5]) greater than 100 µM.

Compound `CC(C)(C)C1CCC(c2cc(C(=O)N3CCC(Oc4cc(N5CCNCC5)ccc4F)CC3)ccc2O[C@H]2CCNC2)CC1` (stereo in doubt) [Compound 34, cis- and trans-(S)-(3-(4-(tert-butyl)cyclohexyl)-4-(pyrrolidin-3-yloxy)phenyl)(4-(2-fluoro-5-(piperazin-1-yl)phenoxy)piperidin-1-yl)methanone dihydrochloride] has a Ki (β-catenin/BCL9 PPI [5]) of no more than 10 µM and an IC50 (β-catenin/BCL9 PPI [5]) of no more than 10 µM.

Source: patent publication US20240208940A1, “SMALL-MOLECULE INHIBITORS FOR BETA-CATENIN/BCELL LYMPHOMA 9 PROTEIN-PROTEIN INTERACTION” (H. LEE MOFFITT CANCER CENTER AND RESEARCH INSTITUTE, INC., priority 2021, published 2024)
